Data set [1] can be described thus: Inhibition of chemotaxis in human polymorphonuclear leukocytes assessed as inhibition of migration towards zymosan-activated human serum at 0.1 ug/ml after 30 mins by Boyden chamber technique. The format is functional. Conditions: 0.5 h.
Data set [2] can be described thus: Inhibition of chemotaxis in human polymorphonuclear leukocytes assessed as inhibition of migration towards zymosan-activated human serum at 10 ug/ml after 30 mins by Boyden chamber technique. The format is functional. Conditions: 0.5 h.
The nature of data set [3]: Inhibition of chemotaxis in human polymorphonuclear leukocytes assessed as inhibition of migration towards zymosan-activated human serum at 100 ug/ml after 30 mins by Boyden chamber technique. It counts as functional. Conditions: 0.5 h.
A short description of data set [4]: Inhibition of chemotaxis in human polymorphonuclear leukocytes assessed as inhibition of migration towards zymosan-activated human serum at 1 ug/ml after 30 mins by Boyden chamber technique. The format is functional. Conditions: 0.5 h.
Data set [5] is described as follows: Inhibition of chemotaxis in human polymorphonuclear leukocytes assessed as inhibition of migration towards zymosan-activated human serum at 50 ug/ml after 30 mins by Boyden chamber technique. It counts as functional. The following applies: 0.5 h.
Data set [6] is described as follows: Cytotoxicity against human polymorphonuclear leukocyte assessed as cell viability at 50 to 100 ug/ml by trypan blue exclusion method. The following applies: polymorphonuclear leukocytes, read-out: INH.

Drawing on ChEMBL document CHEMBL1146557, “An antiinflammatory galactolipid from rose hip (Rosa canina) that inhibits chemotaxis of human peripheral blood neutrophils in vitro” (J Nat Prod, 2003), this text covers inhibition and viability for one compound.

For `CC/C=C\C/C=C\C/C=C\CCCCCCCC(=O)OC[C@H](CO[C@@H]1O[C@H](CO)[C@H](O)[C@H](O)C1O)OC(=O)CCCCCCC/C=C\C/C=C\C/C=C\CC` (single isomer, unassigned), the inhibition at 0.1 µg/mL in data set [1] is 7%. Further, the inhibition at 10 µg/mL in data set [2] was 62%. Further, in data set [3], the inhibition at 100 µg/mL was found to be 82%. For the same compound, the inhibition at 1 µg/mL in data set [4] came out at 64%. The inhibition at 50 µg/mL in data set [5] worked out at 77%. The viability in data set [6] came to 100%.

Broadly, the inhibition is the share of the control response that was lost under treatment.
